Test [1] has as its system BCL-2/PROTAC/VCB ternary complex (HiBit-BCL-2, HaloTag-VHL). Description: NanoBRET intracellular ternary complex formation in 293T cells, BCL-2. It counts as cell-based, human. Conditions: for nanoBRET ratio (610/450, background-subtracted), Ave, Bcl-2: Ave of Read2 and Read3; for nanoBRET ratio (610/450, background-subtracted), Ave, Bcl-2 / nanoBRET ratio (610/450, background-subtracted), Read2, Bcl-2 / nanoBRET ratio (610/450, background-subtracted), Read3, Bcl-2: triplicate wells. In outline:
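293T cells were transfected with HiBit-BCL-xL or HiBit-BCL-2 plus HaloTag-VHL and incubated overnight with or without HaloTag NanoBRET 618 ligand in 4% FBS Opti-MEM. Serially diluted compounds were applied for 6 h at 37 °C. mBRET ratio from donor emission (450/50 nm) and acceptor emission (610 nm longpass) after Nano-Glo substrate.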

Test [2] has as its target T1, BCL-2 (Homo sapiens, UniProt P10415).
T1 construct: endogenous in cells
The experiment in a line: BCL-2 degradation by immunoblot in Kasumi-1 cells. Format: cell-based. Conditions: Fig. 7b; for BCL-2 level, bar graph (0 = 100): two replicate columns. How it is done:
(§1) Tubulin was used as an equal loading control. […] For the viability assays, the data are presented as mean ± s.d. from three replicate cell cultures in a representative experiment. Similar results were also observed in two additional independent experiments. d Representative immunoblot analyses of Kasumi-1 cells 16 h after treatment as indicated. […] Data are representative of two independent experiments. The dotted line represents the value from DMSO-treated cells. Source data are provided as a Source data file.
(§2) Cells were collected, washed once with ice-cold phosphate-buffered saline, pH 7.2 (PBS, cat. no. 20012027; Thermo Fisher Scientific) and lysed in RIPA lysis buffer (Cat. No. BP-115DG, Boston Bio Products, Ashland, MA, USA) supplemented with protease and phosphatase inhibitor cocktails (Cat. No. PPC1010, Sigma-Aldrich, St. Louis, MO, USA) through sonication. The samples were centrifuged at 14,000 r.p.m. for 5 min and the supernatants were transferred into a new tube. The protein concentration in the supernatants was determined using the Pierce BCA protein Assay kit (cat. no. 23225, Thermo Fisher Scientific). The protein concentration was normalized, and the samples were reduced in 4× Laemmli’s SDS-sample buffer (cat. no. BP-110R, Boston Bio Products) and denatured at 95 °C for 5 min. An equal amount of protein samples (20–40 μg per lane) were resolved using precast 4–20% Tris-glycine gels (Mini-PROTEAN TGX, cat. no. 456–1094, Bio-Rad), and resolved proteins were transferred onto 0.2-µm pore size polyvinylidene difluoride (PVDF) blotting membranes (cat. no. LC2002, Thermo Fisher Scientific) using mini trans-blot electrophoretic transfer cell (Bio-Rad). The membranes were blocked with non-fat dry milk (5% wt/vol) in 1× Tris-buffered saline-Tween-20 (TBST, cat. no. J77500, Affymetrix) for 1 h at room temperature, and were subsequently probed with primary antibodies at a predetermined optimal concentration in non-fat dry milk (5% wt/vol in TBST) overnight at 4 °C. The membranes were washed three times (5 min each) in TBST and then incubated with horse radish peroxidase (HRP)-conjugated secondary antibodies for 1 h at room temperature. Following sufficient washing with TBST, the membranes were exposed with chemiluminescent HRP substrate (cat. no. WBKLS0500, MilliporeSigma), and the signal was detected using the ChemiDoc MP Imaging System (Bio-Rad) and quantified using the ImageJ (v1.53a) software from NIH.

The target of test [3] is T2, BCL-xL (Homo sapiens, UniProt Q07817).
T2 construct: endogenous in cells
T2 sequence (Q07817 whole entry): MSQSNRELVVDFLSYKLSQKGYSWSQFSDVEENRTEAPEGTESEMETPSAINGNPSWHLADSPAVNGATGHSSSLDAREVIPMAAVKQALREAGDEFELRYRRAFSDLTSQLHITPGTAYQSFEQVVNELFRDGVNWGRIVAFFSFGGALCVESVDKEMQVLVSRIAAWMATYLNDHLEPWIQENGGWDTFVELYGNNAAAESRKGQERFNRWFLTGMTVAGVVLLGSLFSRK
The experiment in a line: BCL-xL degradation by immunoblot in Kasumi-1 cells. Format: cell-based. The note with it: Fig. 7b; for BCL-xL level, bar graph (0 = 100): two replicate columns. On the procedure:
as §1, §2

Values joined by “and” are separate entries in the source; they are usually repeats but may differ in a detail not shown here. Equal values may be shown once.

T1 sequence (P10415 whole entry): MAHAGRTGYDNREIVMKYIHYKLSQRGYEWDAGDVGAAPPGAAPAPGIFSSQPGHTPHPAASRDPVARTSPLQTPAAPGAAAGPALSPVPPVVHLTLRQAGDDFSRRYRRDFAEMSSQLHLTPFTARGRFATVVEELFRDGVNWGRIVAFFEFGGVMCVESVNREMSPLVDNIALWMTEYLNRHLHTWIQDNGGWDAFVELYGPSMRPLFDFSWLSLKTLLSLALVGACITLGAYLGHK

With `Cc1ncsc1-c1ccc([C@H](C)NC(=O)[C@@H]2C[C@@H](O)CN2C(=O)[C@@H](NC(=O)CCCCCCC(=O)N2CCN(C[C@@]3(C)CCC(c4ccc(Cl)cc4)=C(CN4CCN(c5ccc(C(=O)NS(=O)(=O)c6ccc(N[C@H](CCN7CCOCC7)CSc7ccccc7)c(S(=O)(=O)C(F)(F)F)c6)cc5)CC4)C3)CC2)C(C)(C)C)cc1` [753a], the “nanoBRET ratio (610/450, background-subtracted), Ave, Bcl-2” value in test [1] (0.004 uM) is 3.986 and 4.005 and 4.171; in test [1] (0.012 uM), 3.935 and 4.221 and 4.234; in test [1] (0.111 uM), 5.182 and 5.692 and 5.227; in test [1] (0.333 uM), 5.936 and 5.165 and 5.723; in test [1] (1 uM), 4.911 and 5.007 and 4.802; in test [1] (3 uM) it was 5.075 and 4.7947 and 5.072. Besides, the “nanoBRET ratio (610/450, background-subtracted), Read2, Bcl-2” value in test [1] (0.004 uM) is 4.213 and 3.959 and 4.208; in test [1] (0.012 uM), 4.374 and 4.4563 and 4.486; in test [1] (0.111 uM), 5.4197 and 6.174 and 5.638; in test [1] (0.333 uM) it was 6.144 and 5.244 and 5.817; in test [1] (1 uM), 5.2892 and 5.222 and 5.13; in test [1] (3 uM) it was 5.352 and 5.171 and 5.538. Besides, the “nanoBRET ratio (610/450, background-subtracted), Read3, Bcl-2” value in test [1] (0.004 uM) was 3.759 and 4.052 and 4.1349; in test [1] (0.012 uM) it was 3.4969 and 3.9866 and 3.982; in test [1] (0.111 uM) it was 4.944 and 5.21 and 4.816; in test [1] (0.333 uM) it was 5.728 and 5.085 and 5.6284; in test [1] (1 uM), 4.533 and 4.7919 and 4.4737; in test [1] (3 uM), 4.798 and 4.419 and 4.6068.
`Cc1ncsc1-c1ccc([C@H](C)NC(=O)[C@@H]2C[C@@H](O)CN2C(=O)[C@@H](NC(=O)CCCCCCC(=O)N2CCN(C[C@]3(C)CCC(c4ccc(Cl)cc4)=C(CN4CCN(c5ccc(C(=O)NS(=O)(=O)c6ccc(N[C@H](CCN7CCOCC7)CSc7ccccc7)c(S(=O)(=O)C(F)(F)F)c6)cc5)CC4)C3)CC2)C(C)(C)C)cc1` [753b]: the “nanoBRET ratio (610/450, background-subtracted), Ave, Bcl-2” value is 4.377 and 3.959 and 4.565 in test [1] (0.004 uM); 5.266 and 5.391 and 5.383 in test [1] (0.012 uM); 8.153 and 8.77 and 8.375 in test [1] (0.111 uM); 10.2466 and 9.352 and 9.108 in test [1] (0.333 uM); 9.221 and 9.808 and 9.597 in test [1] (1 uM); 10.0388 and 9.727 and 10.2545 in test [1] (3 uM). In addition, the “nanoBRET ratio (610/450, background-subtracted), Read2, Bcl-2” value is 4.539 and 4.475 and 4.818 in test [1] (0.004 uM); 5.627 and 5.5043 and 5.572 in test [1] (0.012 uM); 8.4844 and 9.173 and 8.444 in test [1] (0.111 uM); 10.4847 and 9.4698 and 9.325 in test [1] (0.333 uM); 8.91 and 9.99 and 9.879 in test [1] (1 uM); 10.3731 and 9.71 and 10.9724 in test [1] (3 uM). Besides, the “nanoBRET ratio (610/450, background-subtracted), Read3, Bcl-2” value in test [1] (0.004 uM) is 4.215 and 3.442 and 4.311; in test [1] (0.012 uM) it was 4.906 and 5.278 and 5.194; in test [1] (0.111 uM) it was 7.821 and 8.367 and 8.306; in test [1] (0.333 uM), 10.0085 and 9.234 and 8.89; in test [1] (1 uM) it was 9.531 and 9.627 and 9.314; in test [1] (3 uM) it was 9.704 and 9.745 and 9.537. For the same compound, the “intracellular ternary complex formation with BCL-2 (in words)” value in test [1] (NanoBRET, 293T cells, 6 h) is “much higher activity to induce the ternary complex formation with both BCL-xL and BCL-2 relative to 753a”. Further, the “BCL-2 degradation in Kasumi-1 cells (in words)” value in test [2] (Kasumi-1 cells, 16 h) is reported as “could also degrade BCL-2”. Further, the “BCL-2 level, bar graph (0 = 100)” value in test [2] (concentration 0.01) was 66 and 60; in test [2] (concentration 0.03), 44 and 48; in test [2] (concentration 0.1), 36 and 21; in test [2] (concentration 0.3), 32 and 26; in test [2] (concentration 1), 36 and 25. The “BCL-xL degradation in Kasumi-1 cells (in words)” value in test [3] (Kasumi-1 cells, 16 h, compared with DT2216) was “more potent BCL-xL degradation”. Also, the “BCL-xL level, bar graph (0 = 100)” value in test [3] (concentration 0.01) is 38 and 35; in test [3] (concentration 0.03) it was 15 and 18; in test [3] (concentration 0.1) it was 8 and 6; in test [3] (concentration 0.3), 7 and 5; in test [3] (concentration 1), 6 and 5.
In the case of `Cc1ncsc1-c1ccc([C@H](C)NC(=O)[C@@H]2C[C@@H](O)CN2C(=O)[C@@H](NC(=O)CCCCCC(=O)N2CCN(CC[C@H](CSc3ccccc3)Nc3ccc(S(=O)(=O)NC(=O)c4ccc(N5CCN(CC6=C(c7ccc(Cl)cc7)CCC(C)(C)C6)CC5)cc4)cc3S(=O)(=O)C(F)(F)F)CC2)C(C)(C)C)cc1` [DT2216], the “BCL-2 level, bar graph (0 = 100)” value was 96 and 105 in test [2] (concentration 0.01); 90 and 102 in test [2] (concentration 0.03); 92 and 98 in test [2] (concentration 0.1); 91 and 99 in test [2] (concentration 0.3); 80 and 89 in test [2] (concentration 1). Besides, the “BCL-xL level, bar graph (0 = 100)” value was 86 and 92 in test [3] (concentration 0.01); 59 and 63 in test [3] (concentration 0.03); 38 and 33 in test [3] (concentration 0.1); 22 and 25 in test [3] (concentration 0.3); 11 and 12 in test [3] (concentration 1).

The record behind these values is article PMC8617031, “Development of a BCL-xL and BCL-2 dual degrader with improved anti-leukemic activity,” (Nature Communications, 2021).
